Data: patent publication US5354758A, “Benzomorphans useful as NMDA receptor antagonists” (priority 1992, dated 1994)
Like-named read-outs stand apart in the source and are kept apart here.

How the values were obtained:
NMDA-induced lethality = test: In vivo protection in the mouse against NMDA-induced lethality; parameters: species or system Swiss-Webster mouse; conditions: ip, 30 minutes before 200 mg/kg NMDA, eight mice per dose, Litchfield and Wilcoxin; for ED50: Mus musculus
Experimental: (§1) According to the method described by Ferkany et al. (1988), the test compounds were administered ip to four male Swiss-Webster mice (26-34 g) each, following 30 minutes later, 200 mg/kg of NMDA was administered to the mice each. […] Those compounds that protected three or more of the mice at any of the doses were evaluated further by determining the ED50 values using three or more doses with the eight mice per dose. The ED50 was estimated by the method of Litchfield and Wilcoxin (1949). Water-soluble compounds were dissolved in distilled water and administered in a volume of 10 ml/kg. Water-insoluble compounds were suspended in an aqueous solution of 0.5% methyl cellulose and administered in a volume of 20 ml/kg.

[1] = target: T1, σ-site of opioid receptor (Cavia porcellus, UniProt Q60492); test: In vitro binding, inhibition of [^3 H]PPP binding to guinea pig brain homogenate; parameters: species or system Hartley guinea pig; conditions: for Ki: guinea pig brain homogenate, 0.6 nM [^3 H]PPP, 25° C., 1 hour
T1 construct: Hartley guinea pigs were decapitated, and the brains were removed and homogenized; from tissue; host or cells: Hartley guinea pig brain homogenate (washed membranes)
Experimental: (§2) As described below, the compounds of the invention were tested for their ability to inhibit binding of radiolabeled versions of these known ligands.
Hartley guinea pigs were decapitated, and the brains were removed and homogenized in 20 volumes of 50 mM Tris-HCl using a Polytron homogenizer. The homogenate was centrifuged at 27,000×G for 15 minutes, and the pellet was resuspended in 50 mM Tris-HCl. The centrifugation procedure was repeated twice. The pellet was diluted to approximately 8 mg wet tissue/assay. Various concentrations of the test compounds (100 μL) and [^3 H]PPP (100 μL, final concentration 0.6 nM) were incubated with 1.8 mL of the tissue homogenate at 25° C. for 1 hour. Unlabeled PPP (final concentration 10 μM) was added to some tubes to determine nonspecific binding. The reaction was stopped by filtration through GF/B filters using a Brandel Cell Harvester. After washing twice with […] of ice cold Tris-HCl, the filters were suspended in 5 mL of scintillation fluid, and the radioactivity was counted after standing at room temperature overnight.
Table 1 summarizes the results of the in vitro binding studies using these three radioligands at the NMDA receptor site, μ-site and σ-site of opioid receptor, respectively.

[2] = target: T2, μ-site of opioid receptor (Rattus norvegicus, UniProt P33535); test: In vitro binding, inhibition of [^3 H]DAGO binding to rat forebrain synaptic membranes; parameters: species or system Sprague-Dawley rat
T2 construct: Semipurified synaptic membranes were prepared according to the method of Toll et al. (1984); from tissue; host or cells: adult male Sprague-Dawley rat forebrain membranes
Experimental: as §2
Semipurified synaptic membranes were prepared according to the method of Toll et al. (1984). Adult male Sprague-Dawley rats were decapitated, and the forebrains were removed, weighed, and homogenized in 20 volumes of […] Tris-HCl, pH 7.7. The homogenate was centrifuged at 27,000×G for 15 minutes, and the resulting pellet was resuspended in buffer and recentrifuged twice. The washed membranes were resuspended in buffer to obtain a membrane concentration of 7.2 mg brain weight/mL; the final concentration in each assay tube was 12.2 mg/2 mL. […] The reaction was stopped by filtration through GF/B filters using a Brandel Cell Harvester. After washing twice with 5 mL of ice cold buffer, the filters were suspended in 5 mL scintillation fluid, and the radioactivity was counted after standing at room temperature overnight.

NMDA receptor site [3] = test: In vitro binding, inhibition of [^3 H]MK-801 binding to rat forebrain synaptic membranes; parameters: species or system Sprague-Dawley rat; conditions: 3 nM [^3 H]MK-801, 50 μM glycine and glutamate, 37° C., 2 hours, read-out: Ki [^3 H]MK801
Experimental: as §2
Semipurified synaptic membranes were prepared according to the method of Bristow et al. (1986) with minor modifications. Sprague-Dawley rats were decapitated and the forebrains were removed, weighed, and homogenized in 20 volumes of 0.32M sucrose. The homogenate was centrifuged at 121×G for 10 min. The resulting supernatant was recentrifuged at 27,000×G for 15 min. The pellet was resuspended in 20 volumes of distilled water and this suspension was centrifuged at 8,000×G for 10 min. Both the supernatant and the buffy coat layer, removed with 2 mL of 5 mM Tris-Cl (pH 7.8), were pooled and centrifuged at 27,000×G for 15 min. The supernatant was removed, the pellet was covered with a small amount of 5 mM Tris-Cl, and the sample was frozen for at least 18 hrs at -20° C. Membranes were then washed four times in 5 mM Tris-Cl and finally resuspended in 25 mL. This preparation was used for the binding assay immediately or frozen for subsequent use.
The incubation was terminated by rapid filtration (Brandel Cell Harvester) over Whatman GF/B filters, which were then washed twice with 5 mL of 5 mM Tris-HCl. Radioactivity trapped on the filters was counted in 5 mL Scintiverse II at 50% efficiency in 7 mL minivials after standing at room temperature overnight.

[4] = system: σ-site of opioid receptor; conditions: shown previously; cited from earlier work
mice = test: Lethality of NMDA in mice; format: in vivo, Swiss-Webster mouse; conditions: NMDA at 200 mg/kg
Experimental: as §1

NMDA receptor site [5] = conditions: shown previously; cited from earlier work
[6] = Ki [^3 H]DAGO, 2 nM [^3 H]DAGO, 25° C., 1 hour

T2 sequence (P33535 whole entry): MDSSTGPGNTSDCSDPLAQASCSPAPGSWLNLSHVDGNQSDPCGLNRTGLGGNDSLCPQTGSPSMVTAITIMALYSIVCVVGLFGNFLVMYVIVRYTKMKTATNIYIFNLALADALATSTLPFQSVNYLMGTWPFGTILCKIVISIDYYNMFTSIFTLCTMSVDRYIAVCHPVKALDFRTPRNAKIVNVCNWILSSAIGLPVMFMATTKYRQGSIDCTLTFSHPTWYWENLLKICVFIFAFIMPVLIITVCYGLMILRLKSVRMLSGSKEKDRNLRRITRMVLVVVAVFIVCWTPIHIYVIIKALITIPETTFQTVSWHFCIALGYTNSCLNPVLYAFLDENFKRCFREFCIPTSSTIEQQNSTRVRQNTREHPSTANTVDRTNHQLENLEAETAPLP
T1 sequence (Q60492 whole entry): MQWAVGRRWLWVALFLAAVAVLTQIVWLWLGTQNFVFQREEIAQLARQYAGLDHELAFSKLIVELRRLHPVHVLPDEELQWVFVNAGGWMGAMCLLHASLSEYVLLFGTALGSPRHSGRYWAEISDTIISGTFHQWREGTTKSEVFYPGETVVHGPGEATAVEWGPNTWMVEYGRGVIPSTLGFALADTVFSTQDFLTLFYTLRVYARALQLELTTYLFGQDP

Compound	ED50 (NMDA-induced lethality)	Ki ([1]; read-out: Ki [^3 H]PPP)	Ki [2, 6]	Ki (NMDA receptor site [3])	Mouse ED50 (NMDA-induced lethality)	further results
C[C@@H]1[C@@H]2Cc3ccccc3[C@@]1(C)CCN2O [(+)-BZ-17A, (1S,5S,9S)-(+)-2-hydroxy-5,9-dimethyl-6,7-benzomorphan]	21.6 mg/kg	25.9 µM	21.9 µM	43 µM		
CC(C1CCC1)N1CC[C@]2(C)c3ccccc3C[C@H]1[C@H]2C (single isomer, unassigned; (+)) [(+)-BZ-3 (Isomer A)]		0.0012 µM	11.8 µM	0.22 µM	16.4 mg/kg	
C[C@@H]1[C@@H]2Cc3ccccc3[C@@]1(C)CCN2N(C)C [(+)-BZ-18, (1S,5S,9S)-(+)-5,9-dimethyl-2-dimethylamino-6,7-benzomorphan]	14.4 mg/kg	0.81 µM		4.54 µM		
CCCN1CCCC(c2cccc(O)c2)C1 (stereo not shown) [PPP, reference compound]						high-affinity ligand at the σ site of the opioid receptor [4]: high-affinity; Kd [1]: 0.02 µM
CN[C@H](CC(=O)O)C(=O)O [NMDA, N-methyl-D-aspartate]						mice died (mice): approximately 90%
CC(C1CC1)N1CC[C@]2(C)c3cc(F)ccc3C[C@H]1[C@H]2C (single isomer, unassigned; (+)) [(+)-BZ-14 (Isomer B)]		0.062 µM		3.53 µM	13 mg/kg	Ki ([2]; read-out: Ki [^3 H]DAGO, 2 nM [^3 H]DAGO, 25° C., 1 hour): 5.01 µM
CC(C1CO1)N1CC[C@]2(C)c3ccccc3C[C@H]1[C@H]2C (single isomer, unassigned; (+)) [(+)-BZ-5]		0.011 µM	5.8 µM	11.6 µM		
C[C@@H]1[C@@H]2Cc3ccccc3[C@@]1(C)CCN2C(C)(C)C [(+)-BZ-15A, (1S,5S,9S)-(+)-2-Tert-butyl-5,9-dimethyl-6,7-benzomorphan]	10.7 mg/kg	0.98 µM	7.29 µM	2.59 µM		
CC(C1CC1)N1CC[C@]2(C)c3cc(F)ccc3C[C@H]1[C@H]2C (single isomer, unassigned; (+)) [(+)-BZ-14 (Isomer A)]		0.014 µM	0.72 µM	0.85 µM	6.1 mg/kg	
CN1CC[C@@]23CCCC[C@@H]2[C@@H]1Cc1ccc(O)cc13 [Dextrorphan, reference compound]			2.2 µM		34.6 mg/kg	
CC(C1CC1)N1CC[C@]2(C)c3ccccc3C[C@H]1[C@H]2C (single isomer, unassigned; (+)) [(+)-IIId-7 (Isomer B)]		0.071 µM	6.58 µM	1.99 µM	13.7 mg/kg	
CC(C1CCC1)N1CC[C@]2(C)c3ccccc3C[C@H]1[C@H]2C (single isomer, unassigned; (+)) [(+)-BZ-3 (Isomer B)]		0.0081 µM	13.5 µM	3.61 µM	> 60 mg/kg	
CC(C1CC1)N1CC[C@]2(C)c3ccccc3C[C@H]1[C@H]2C (single isomer, unassigned; (+)) [(+)-IIId-7 (Isomer A)]		0.02 µM	3.05 µM	0.75 µM	6.8 mg/kg	
CC(C)N1CC[C@]2(C)c3ccccc3C[C@H]1[C@H]2C [(+)-IIId-6, (1S,5S,9S)-(+)-2-Isopropyl-5,9-dimethyl-6,7-benzomorphan]	17.3 mg/kg	0.56 µM	18.9 µM	3.51 µM		
C=CC(C)N1CC[C@]2(C)c3ccccc3C[C@H]1[C@H]2C (single isomer, unassigned; (+)) [(+)-BZ-2]	22.1 mg/kg	0.1 µM	9.58 µM	1.32 µM		
CC(C)N1CC[C@]2(C)c3cc(Cl)ccc3C[C@H]1[C@H]2C [(+)-BZ-26, (1S,5S,9S)-(+)-2'-Chloro-2-isopropyl-5,9-dimethyl-6,7-benzomorphan]	12.2 mg/kg	0.074 µM	11.8 µM	12.8 µM		
C#CC(C)N1CC[C@]2(C)c3ccccc3C[C@H]1[C@H]2C (single isomer, unassigned; (+)) [(+)-BZ-6 (Isomer A)]		19.2 µM	12.3 µM	16.6 µM	> 50 mg/kg	
COc1ccc2c(c1)[C@]13CCCC[C@@H]1[C@H](C2)N(C)CC3 [Dextromethorphan, reference compound]	39 mg/kg		1.74 µM			Ki ([1]; Ki [^3 H]PPP): 0.15 µM
CC(C1CO1)N1CC[C@]2(C)c3ccccc3C[C@H]1[C@H]2C (mixture of isomers) [(+)-BZ-5 (Mixture of Isomer B and C), (1S,5S,9S)-(+)-5,9-Dimethyl-2-(1-methyl-2,3-epoxypropyl)-6,7-benzomorphan]	32.5 mg/kg	0.042 µM	12.4 µM			
CC(C1CO1)N1CC[C@]2(C)c3ccccc3C[C@H]1[C@H]2C (single isomer, unassigned; (+)) [(+)-BZ-5 (Isomer A)]		0.04 µM	9.74 µM	29.2 µM		
C[C@]12N[C@H](Cc3ccccc31)c1ccccc12 [MK-801]						high-affinity ligand at the NMDA receptor site (NMDA receptor site [5]): high-affinity
C[C@@H]1[C@@H]2Cc3ccccc3[C@@]1(C)CCN2C(C1CC1)C1CC1 [(+)-BZ-1, (1S,5S,9S)-(+)-2-Dicyclopropylmethyl-5,9-dimethyl-6,7-benzomorphan]	33.1 mg/kg	0.16 µM	11.5 µM	14 µM		
CC(C)N1CC[C@]2(C)c3cc(F)ccc3C[C@H]1[C@H]2C [(+)-BZ-13, (1S,5S,9S)-(+)-2'-Fluoro-2-isopropyl-5,9-dimethyl-6,7-benzomorphan]	9 mg/kg	0.26 µM	20.2 µM	4.15 µM		
C=CC(C1CC1)N1CC[C@]2(C)c3ccccc3C[C@H]1[C@H]2C (single isomer, unassigned; (+)) [(+)-BZ-4]	24.1 mg/kg	0.13 µM	20.2 µM	11.5 µM		
C#CC(C)N1CC[C@]2(C)c3ccccc3C[C@H]1[C@H]2C (single isomer, unassigned; (+)) [(+)-BZ-6 (Isomer B)]		1.1 µM	9 µM	2.55 µM	18.8 mg/kg	
